Reference: ChEMBL document CHEMBL5724914, “Linking interpersonal differences in gut microbiota composition and drug biotransformation activity” (2024)

Key:
[1] = (§1) The drug is tested on Z-027 corresponding to metagenome with ENA study accession number: PRJEB37062 and ENA sample accession number: ERS12561826 for biotransformation under anaerobic condition. The drug concentrations were measured over 9 timepoints collected between 0 and 24 hours of incubation by liquid-chromatography-coupled mass spectrometry (LC–MS); conditions: 2 µM
[2] = as §1, with “Z-026” for “Z-027”, “ERS12561825” for “ERS12561826”; conditions: 2 µM
[3] = (§2) The drug is tested on Z-020 corresponding to rabbit gut metagenome with ENA study accession number: PRJEB37062 and ENA sample accession number: ERS12561819 for biotransformation under anaerobic condition. The drug concentrations were measured over 9 timepoints collected between 0 and 24 hours of incubation by liquid-chromatography-coupled mass spectrometry (LC–MS); conditions: 2 µM
[4] = as §2, with “Z-009” for “Z-020”, “pig” for “rabbit”, “ERS12561809” for “ERS12561819”; conditions: 2 µM
[5] = human gut metagenome, 24 h, 2 µM
[6] = human gut metagenome, 24 h, 2 µM; remark: listed apart in the source
[7] = human gut metagenome, 24 h, 2 µM; remark: listed apart in the source
[8] = human gut metagenome, 24 h, 2 µM; remark: listed apart in the source
[9] = human gut metagenome, 24 h, 2 µM; remark: listed apart in the source
Further: call rule not given here.

Compound | Bacterial Biotransformation [1] | Bacterial Biotransformation [2] | Bacterial Biotransformation [3] | Bacterial Biotransformation [4] | Bacterial Biotransformation [5] | Bacterial Biotransformation [6] | Bacterial Biotransformation [7] | Bacterial Biotransformation [8] | Bacterial Biotransformation [9]
COc1ccc2c(c1)c(CC(=O)O)c(C)n2C(=O)c1ccc(Cl)cc1 [INDOMETHACIN] | Compound metabolized | Compound NOT metabolized | Compound metabolized | Compound NOT metabolized | Compound metabolized | Compound metabolized | Compound metabolized | Compound metabolized | Compound NOT metabolized
CC(CCc1ccccc1)NCC(O)c1ccc(O)c(C(N)=O)c1 (stereo unspecified) [LABETALOL] | Compound metabolized | Compound NOT metabolized | Compound NOT metabolized | Compound NOT metabolized | Compound NOT metabolized | Compound NOT metabolized | Compound metabolized | Compound NOT metabolized | Compound NOT metabolized
Nc1nnc(-c2cccc(Cl)c2Cl)c(N)n1 [LAMOTRIGINE] | Compound NOT metabolized | Compound NOT metabolized | Compound NOT metabolized | Compound NOT metabolized | Compound NOT metabolized | Compound metabolized | Compound NOT metabolized | Compound NOT metabolized | Compound metabolized
OC(c1cc(C(F)(F)F)nc2c(C(F)(F)F)cccc12)C1CCCCN1 (stereo unspecified) [MEFLOQUINE] | Compound NOT metabolized | Compound metabolized | Compound metabolized | Compound metabolized | Compound NOT metabolized | Compound metabolized | Compound metabolized | Compound NOT metabolized | Compound metabolized
CC(=O)O[C@]1(C(C)=O)CC[C@H]2[C@@H]3C=C(C)C4=CC(=O)CC[C@]4(C)[C@H]3CC[C@@]21C [MEGESTROL ACETATE] | Compound metabolized | Compound metabolized | Compound metabolized | Compound metabolized | Compound metabolized | Compound metabolized | Compound metabolized | Compound metabolized | Compound metabolized
CC12CC3CC(C)(C1)CC(N)(C3)C2 [MEMANTINE] | Compound NOT metabolized | Compound NOT metabolized | Compound NOT metabolized | Compound NOT metabolized | Compound NOT metabolized | Compound NOT metabolized | Compound NOT metabolized | Compound NOT metabolized | Compound NOT metabolized
Cc1cc(C)cc(OCC2CNC(=O)O2)c1 (stereo unspecified) [METAXALONE] | Compound metabolized | Compound metabolized | Compound NOT metabolized | Compound NOT metabolized | Compound metabolized | Compound metabolized | Compound NOT metabolized | Compound metabolized | Compound metabolized
COC(=O)C(c1ccccc1)C1CCCCN1 (stereo unspecified) [METHYLPHENIDATE] | Compound NOT metabolized | Compound NOT metabolized | Compound NOT metabolized | Compound metabolized | Compound NOT metabolized | Compound NOT metabolized | Compound NOT metabolized | Compound NOT metabolized | Compound NOT metabolized
CN1CCN2c3ccccc3Cc3ccccc3C2C1 (stereo unspecified) [MIANSERIN] | Compound NOT metabolized | Compound NOT metabolized | Compound NOT metabolized | Compound metabolized | Compound NOT metabolized | Compound metabolized | Compound NOT metabolized | Compound NOT metabolized | Compound metabolized
CC#C[C@]1(O)CC[C@H]2[C@@H]3CCC4=CC(=O)CCC4=C3[C@@H](c3ccc(N(C)C)cc3)C[C@@]21C [MIFEPRISTONE] | Compound NOT metabolized | Compound NOT metabolized | Compound metabolized | Compound metabolized | Compound NOT metabolized | Compound metabolized | Compound metabolized | Compound NOT metabolized | Compound metabolized
CC(C)(C)NCC(O)COc1cccc2c1CC(O)C(O)C2 (stereo unspecified) [NADOLOL] | Compound NOT metabolized | Compound NOT metabolized | Compound NOT metabolized | Compound metabolized | Compound NOT metabolized | Compound NOT metabolized | Compound metabolized | Compound NOT metabolized | Compound metabolized
CC(C)[C@H]1CC[C@H](C(=O)N[C@H](Cc2ccccc2)C(=O)O)CC1 [NATEGLINIDE] | Compound metabolized | Compound NOT metabolized | Compound metabolized | Compound metabolized | Compound metabolized | Compound metabolized | Compound metabolized | Compound metabolized | Compound metabolized
CN(C)C(=O)Oc1cccc([N+](C)(C)C)c1.[Br-] [NEOSTIGMINE BROMIDE] | Compound NOT metabolized | Compound NOT metabolized | Compound NOT metabolized | Compound NOT metabolized | Compound NOT metabolized | Compound NOT metabolized | Compound NOT metabolized | Compound NOT metabolized | Compound NOT metabolized
Cc1cc2c(s1)Nc1ccccc1N=C2N1CCN(C)CC1 [OLANZAPINE] | Compound NOT metabolized | Compound NOT metabolized | Compound NOT metabolized | Compound NOT metabolized | Compound NOT metabolized | Compound NOT metabolized | Compound metabolized | Compound NOT metabolized | Compound metabolized
Cc1ccccc1C(OCCN(C)C)c1ccccc1.O=C(O)CC(O)(CC(=O)O)C(=O)O (stereo unspecified) [ORPHENADRINE CITRATE] | Compound NOT metabolized | Compound NOT metabolized | Compound metabolized | Compound metabolized | Compound metabolized | Compound NOT metabolized | Compound NOT metabolized | Compound NOT metabolized | Compound metabolized
COc1ccc(Cc2nccc3cc(OC)c(OC)cc23)cc1OC [PAPAVERINE] | Compound NOT metabolized | Compound NOT metabolized | Compound NOT metabolized | Compound metabolized | Compound NOT metabolized | Compound metabolized | Compound metabolized | Compound metabolized | Compound metabolized
CC(=O)CCCCn1c(=O)c2c(ncn2C)n(C)c1=O [PENTOXIFYLLINE] | Compound NOT metabolized | Compound NOT metabolized | Compound NOT metabolized | Compound NOT metabolized | Compound NOT metabolized | Compound NOT metabolized | Compound NOT metabolized | Compound NOT metabolized | Compound metabolized
CCCN1C[C@H](CSC)C[C@@H]2c3cccc4[nH]cc(c34)C[C@H]21.CS(=O)(=O)O [PERGOLIDE MESYLATE] | Compound NOT metabolized | Compound NOT metabolized | Compound NOT metabolized | Compound NOT metabolized | Compound NOT metabolized | Compound NOT metabolized | Compound NOT metabolized | Compound NOT metabolized | Compound NOT metabolized
CC(C)(C)N.CCC[C@H](N[C@@H](C)C(=O)N1[C@H](C(=O)O)C[C@@H]2CCCC[C@@H]21)C(=O)OCC [PERINDOPRIL ERBUMINE] | Compound NOT metabolized | Compound NOT metabolized | Compound metabolized | Compound metabolized | Compound metabolized | Compound metabolized | Compound metabolized | Compound metabolized | Compound metabolized
